The results in this text go back to US9988381B2, “Five-member-heterocycle fused pyridine compounds, method of producing the same, and use thereof” (SHANGHAI INSTITUTE OF MATERIA MEDICA, CHINESE ACADEMY OF …, priority 2013, dated 2018).

Read-outs that look alike come from different tables or passages of the source.

The target of assay [1] is T1, c-Met kinase domain recombinant protein (Homo sapiens, UniProt P08581).
T1 construct: 50 μL diluted solution of c-Met kinase domain recombinant protein in reaction buffer was added to initiate the reaction
T1 sequence (P08581 1078-1345 limits assumed): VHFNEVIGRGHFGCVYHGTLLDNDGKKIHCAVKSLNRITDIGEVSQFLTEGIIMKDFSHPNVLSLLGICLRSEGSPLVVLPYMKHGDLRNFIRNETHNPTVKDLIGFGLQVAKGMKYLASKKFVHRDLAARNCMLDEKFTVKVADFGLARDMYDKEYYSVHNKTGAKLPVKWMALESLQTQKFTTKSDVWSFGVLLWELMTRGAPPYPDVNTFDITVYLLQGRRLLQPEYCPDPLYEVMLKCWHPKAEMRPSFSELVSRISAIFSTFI
The experiment in a line: biochemical. The conditions noted are these: read-out: Inhibition rate at 10 μM (%). Summed up: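 Recombinant c-Met kinase domain phosphorylated immobilised Poly(Glu,Tyr)4:1 for 1 h at 37 °C in 50 mM HEPES pH 7.4, 50 mM MgCl2, 0.5 mM MnCl2, 0.2 mM Na3VO4, 1 mM DTT with ATP. Product measured by anti-phosphotyrosine PY99 ELISA (HRP, 490 nm), giving percent inhibition; ATP-free wells served as control.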

Assay [2] addresses T1, c-Met kinase domain recombinant protein. Description: biochemical. The conditions noted are these: for inhibition at 0.1 µM: read-out: Average inhibition rate at 0.1 μM (%); for inhibition at 1 µM: read-out: Average inhibition rate at 1 μM (%); for inhibition at 10 µM: read-out: Average inhibition rate at 10 μM (%). In outline: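 IC50 came from a four-parameter fit of inhibition rates measured by anti-phosphotyrosine (PY99/HRP) ELISA at 490 nm. The reaction ran 1 hour at 37° C with 5 μM ATP, c-Met kinase domain protein and Poly(Glu,Tyr)4:1-coated wells, in HEPES pH 7.4 buffer containing MgCl2, MnCl2, Na3VO4 and DTT.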

The next assay concerns BaF3/TPR-Met cell. The experiment in a line: Test III: growth inhibition of engineered BaF3/TPR-Met cells (MTT). Type of assay: cell-based. Conditions: Mus musculus; for inhibition at 0.2 µM: read-out: Cell proliferation inhibition rate at 200 nM (%); for inhibition at 1 µM: read-out: Cell proliferation inhibition rate at 1 μM (%). Here is the method: Assays on the growth inhibition of the compounds against engineered BaF3/TPR-Met cell (engineered cell line having TPR-Met fusion protein stably expressed in cytoplasm, persistently activated, Met dependent sensitive cell line; BaF3 cell was purchased from DSMZ, German) were detected using microculture tetrozolium (MTT) staining. A certain amount of BaF3/TPR-Met cells at log phase were inoculated into 96-well culture plate at 90 µL per well, incubated overnight and then 10 μL compound at various concentrations or vehicle control (normal saline) was added, each concentration was tested in triplicate. After incubation with compound for 72 hours, the incubation was terminated, MTT solution (5 mg/mL) was added at 20 μL per well, incubated at 37° C. for 4 hours, then 100 μL triplet solution (10% SDS−5% isobutanol−0.01M HCl) was added, incubated overnight at 37° C., OD value was measured at 570 nm. […] Experiments were conducted in duplicates.

Another assay has as its system EBC-1 cell. The experiment in a line: Test III: growth inhibition of non-small cell carcinoma EBC-1 cell (SRB). The assay is classed as cell-based. The conditions noted are these: Homo sapiens, EBC-1, 72 h; for inhibition at 0.2 µM: read-out: Cell proliferation inhibition rate at 200 nM (%); for inhibition at 1 µM: read-out: Cell proliferation inhibition rate at 1 μM (%). The method, then:
Assays on the growth inhibition of the compounds against gastric tumor cell MKN45, non-small cell carcinoma EBC-1 cell (both are MET persistent activated cell lines due to MET gene amplification, and are Met dependent tumor cell lines, MKN45 cell was purchased from JCRB, Japan, EBC-1 cell was purchased from ATCC, USA) were detected using sulforhodamine B (SRB) staining. […] After incubation with compound for 72 hours, the incubation was terminated, adherent cells were retained and medium was discarded, 10% (w/v) trichloroacetic acid (100 μL pre well) was added, the cells were fixed at 4° C. for 1 hour, then rinsed with distilled water for 5 times, after dried at room temperature, SRB solution (4 mg/mL, dissolved in 1% glacial acetic acid) was added at 100 μL per well, incubated and stained at room temperature for 15 minutes, then rinsed with 1% glacial acetic acid for 5 times to remove any unbound SRB, dried at room temperature, then 10 mM Tris solution was added at 100 μL per well, the optical density (OD) value at 515 nm was measured using VERSMax microplate reader.
Experiments were conducted in duplicates. IC50 value was calculated by fitting the data for a four parameter fit using inhibition curve, the results are shown below in Table 2.

For `Cn1cc(-c2cnc3cnn(S(=O)(=O)c4c(Cl)nc5sccn45)c3c2)cn1` [Compound 18], in assay [1], the inhibition at 10 µM turned out to be 64%. In assay [2], the concentration for half-maximal inhibition (IC50) was 4.2 ± 0.6 nM, the inhibition at 0.1 µM was found to be 52.2%, the inhibition at 1 µM worked out at 60.5% and the inhibition at 10 µM worked out at 64%. Moreover, in the assay on BaF3/TPR-Met cell (BaF3, 72 h), the inhibition at 0.2 µM was 1.8% and the inhibition at 1 µM was determined as 94.4%.

`Cn1cc(-c2cnc3cnn(S(=O)(=O)c4cccc5nonc45)c3c2)cn1` [Compound 20, 1-(benzo[1,2,5]oxadiazole-4-sulfonyl)-6-[(1-methyl)-4-pyrazolyl]-1-H-pyrazolo[4,3-b]pyridine]: the inhibition at 10 µM in assay [1] stood at 85.7%. Besides, in assay [2], the IC50 amounted to 316 ± 141 nM, the inhibition at 0.1 µM worked out at 54.9%, the inhibition at 1 µM was determined as 72.6% and the inhibition at 10 µM was 85.7%. Moreover, in the assay on BaF3/TPR-Met cell (BaF3, 72 h), the inhibition at 0.2 µM stood at 3.2% and the inhibition at 1 µM turned out to be 2.9%.

Take `Cn1cc(-c2cnc3cnn(S(=O)(=O)c4cnc5cccnn45)c3c2)cn1` [Example 21, 1-(imidazo[1,2-b]pyridazine-3-sulfonyl)-6-[(1-methyl)-4-pyrazolyl]-1-H-pyrazolo[4,3-b]pyridine]: the inhibition at 10 µM in assay [1] was found to be 77.9%. In assay [2], the inhibition at 0.1 µM is 59%, the inhibition at 1 µM stood at 59.7% and the inhibition at 10 µM is 77.9%. Moreover, in the assay on BaF3/TPR-Met cell (BaF3/TPR-Met, 1 μM, 72 hours), the inhibition at 1 µM worked out at 42.7%.

`Cn1cc(-c2cnc3cnn(S(=O)(=O)c4cnc5ccc(Cl)cn45)c3c2)cn1` [Example 24, 1-[(6-chloro-imidazo[1,2-a]pyridine)-3-sulfonyl]-6-[(1-methyl)-4-pyrazolyl]-1-H-pyrazolo[4,3-b]pyridine]: the inhibition at 10 µM in assay [1] stood at 70.5%. In addition, in assay [2], the half-inhibitory concentration (IC50) was found to be 2.5 ± 1.2 nM, the inhibition at 0.1 µM was found to be 62.9%, the inhibition at 1 µM was 67.8% and the inhibition at 10 µM worked out at 70.5%. Besides, in the assay on BaF3/TPR-Met cell (BaF3, 72 h), the inhibition at 0.2 µM was 65.9% and the inhibition at 1 µM was determined as 90.9%.

On to `Cn1cc(-c2cnc3cnn(S(=O)(=O)c4cnc5ccc(Cl)nn45)c3c2)cn1` [Example 25, 1-[(6-chloro-imidazo[1,2-b]pyridazine)-3-sulfonyl]-6-[(1-methyl)-4-pyrazolyl]-1-H-pyrazolo[4,3-b]pyridine], for which the inhibition at 10 µM in assay [1] worked out at 86.2%. Besides, in assay [2], the IC50 came to 21.3 ± 2.3 nM, the inhibition at 0.1 µM amounted to 71.7%, the inhibition at 1 µM is 78% and the inhibition at 10 µM is 86.2%. In the assay with BaF3/TPR-Met cell (BaF3, 72 h), the inhibition at 0.2 µM came out at 36.3% and the inhibition at 1 µM is 88.4%.

For the compound `O=S(=O)(c1cnc2ccccn12)n1ncc2ncc(-c3ccccc3)cc21` [Example 28, 1-(imidazo[1,2-a]pyridine-3-sulfonyl)-6-phenyl-1-H-pyrazolo[4,3-b]pyridine], the inhibition at 10 µM in assay [1] worked out at 70.6%. Besides, in assay [2], the IC50 was found to be 6.7 ± 0.5 nM, the inhibition at 0.1 µM is 64.6%, the inhibition at 1 µM stood at 70.3% and the inhibition at 10 µM came out at 70.6%. The inhibition at 1 µM with BaF3/TPR-Met cell (BaF3, 72 h) came out at 66.1%.

As for `O=S(=O)(c1cnc2ccccn12)n1ncc2ncc(-c3ccsc3)cc21` [Example 29, 1-(imidazo[1,2-a]pyridine-3-sulfonyl)-6-(3-thienyl)-1-H-pyrazolo[4,3-b]pyridine], the inhibition at 10 µM in assay [1] amounted to 65.7%. In addition, in assay [2], the concentration for half-maximal inhibition (IC50) turned out to be 4.6 ± 1 nM, the inhibition at 0.1 µM worked out at 55.7%, the inhibition at 1 µM came out at 63.8% and the inhibition at 10 µM was 65.7%. Also, the inhibition at 1 µM with BaF3/TPR-Met cell (BaF3, 72 h) came out at 92.6%.

`CN1CCN(C(=O)c2ccc(-c3cnc4cnn(S(=O)(=O)c5cnc6ccccn56)c4c3)cc2)CC1` [Example 37, 1-(imidazo[1,2-a]pyridine-3-sulfonyl)-6-[4-(4-methylpiperazine-1-carbonyl)phenyl]-1-H-pyrazolo[4,3-b]pyridine]: in assay [1], the inhibition at 10 µM is 73.3%. Further, in assay [2], the half-inhibitory concentration (IC50) was determined as 6.4 ± 2.2 nM, the inhibition at 0.1 µM is 60.1%, the inhibition at 1 µM stood at 63.8% and the inhibition at 10 µM was found to be 73.3%. In the assay with BaF3/TPR-Met cell (BaF3, 72 h), the inhibition at 0.2 µM came to 59.5% and the inhibition at 1 µM is 96.2%.

With `O=S(=O)(c1cnc2ccccn12)n1ncc2ncc(-c3ccc(N4CCOCC4)cc3)cc21` [Example 39, 1-(imidazo[1,2-a]pyridine-3-sulfonyl)-6-(4-morpholinylphenyl)-1-H-pyrazolo[4,3-b]pyridine], the inhibition at 10 µM in assay [1] is 68.8%. For the same compound, in assay [2], the IC50 turned out to be 2.6 ± 0.3 nM, the inhibition at 0.1 µM stood at 58.2%, the inhibition at 1 µM stood at 65% and the inhibition at 10 µM came to 68.8%. Also, in the assay with BaF3/TPR-Met cell (BaF3, 72 h), the inhibition at 0.2 µM is 74.4% and the inhibition at 1 µM is 96.3%.

For the compound `Cn1cc(-c2ccc3ncc(S(=O)(=O)n4ncc5ncc(C6=CCNCC6)cc54)n3c2)cn1` [Example 139, 1-{(6-[(1-methyl)-4-pyrazolyl]-imidazo[1,2-a]pyridine)-3-sulfonyl}-6-[4-(1,2,3,6-tetrahydropyridinyl)]-1-H-pyrazolo[4,3-b]pyridine], in assay [2], the 50% inhibitory concentration (IC50) was 1 ± 0.1 nM, the inhibition at 0.1 µM came out at 90.3% and the inhibition at 1 µM was 88.9%. Also, in the assay with EBC-1 cell, the inhibition at 0.2 µM stood at 90.7% and the inhibition at 1 µM was found to be 91.6%.

Turning to `Cn1cc(-c2ccc3ncc(S(=O)(=O)n4ncc5ncc(-c6cnn(C7CCNCC7)c6)cc54)n3c2)cn1` [Example 140, 1-{(6-[(1-methyl)-4-pyrazolyl]-imidazo[1,2-a]pyridine)-3-sulfonyl}-6-{[1-(4-piperidinyl)]-4-pyrazolyl}-1-H-pyrazolo[4,3-b]pyridine], in assay [2], the IC50 is 0.5 ± 0.03 nM, the inhibition at 0.1 µM stood at 92.4% and the inhibition at 1 µM came out at 89.5%. Further, in the assay on EBC-1 cell, the inhibition at 0.2 µM came out at 91.4% and the inhibition at 1 µM is 92%.

For the compound `Cn1cc(-c2ccc3ncc(S(=O)(=O)n4ncc5ncc(-c6cnn(C7CCN(C(=O)OC(C)(C)C)CC7)c6)cc54)n3c2)cn1` [Example 141, 1-{(6-[(1-methyl)-4-pyrazolyl]-imidazo[1,2-a]pyridine)-3-sulfonyl}-6-{{1-[(1-t-butoxycarbonyl)-4-piperidinyl]}-4-pyrazolyl}-1-H-pyrazolo[4,3-b]pyridine], in assay [2], the half-maximal inhibitory concentration (IC50) was found to be 0.3 ± 0.1 nM, the inhibition at 0.1 µM was 86.3% and the inhibition at 1 µM came out at 88.5%. Further, in the assay with EBC-1 cell, the inhibition at 0.2 µM came to 92.6% and the inhibition at 1 µM came to 92.7%.

In the case of `Cn1cc(-c2ccc3ncc(S(=O)(=O)n4ncc5ncc(-c6ccc(CN7CCOCC7)cc6)cc54)n3c2)cn1` [Example 143, 1-{(6-[(1-methyl)-4-pyrazolyl]-imidazo[1,2-a]pyridine)-3-sulfonyl}-6-(4-morpholinomethylphenyl)-1-H-pyrazolo[4,3-b]pyridine], in assay [2], the half-maximal inhibitory concentration (IC50) is 0.4 ± 0.1 nM, the inhibition at 0.1 µM came to 90% and the inhibition at 1 µM came to 92.1%. Besides, in the assay with EBC-1 cell, the inhibition at 0.2 µM turned out to be 92.3% and the inhibition at 1 µM was 92.5%.

On to `Cn1cc(-c2ccc3ncc(S(=O)(=O)n4ncc5ncc(-c6ccccc6)cc54)n3c2)cn1` [Example 144, 1-{(6-[(1-methyl)-4-pyrazolyl]-imidazo[1,2-a]pyridine)-3-sulfonyl}-6-phenyl-1-H-pyrazolo[4,3-b]pyridine], for which, in assay [2], the IC50 was found to be 0.3 ± 0.01 nM, the inhibition at 0.1 µM turned out to be 92.1% and the inhibition at 1 µM was 93.1%. In addition, in the assay with EBC-1 cell, the inhibition at 0.2 µM stood at 91.1% and the inhibition at 1 µM was 91.4%.

As usually defined, the IC50 is the concentration needed to halve the response being measured.
